Laboratory results as given in patent US20100099561A1, “HETEROBICYCLIC ALKYLTHIO-BRIDGED ISOXAZOLINES” (E.I. DU PONT DE NEMOURS AND COMPANY, priority 2008, published 2010).

Columns and labels:
Format in all cases: in vivo
[1] = test system: barnyardgrass (Echinochloa crus-galli); test: Test A preemergence, barnyardgrass; details: 0 to 100 scale (0 no effect, 100 complete control)
Outline: (§1)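 Visual injury scored 0 (no effect) to 100 (complete control) against untreated plants roughly ten days after greenhouse treatment. Postemergence sprays hit one- to two-leaf plants 2–10 cm high; preemergence was a directed spray onto loam–sand soil, both using surfactant-containing solvent formulations.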

[2] = test system: large crabgrass (Digitaria sanguinalis); test: Test A preemergence, large crabgrass; details: 0 to 100 scale (0 no effect, 100 complete control)
Outline: as §1

[3] = test system: giant foxtail (Setaria faberi); test: Test A preemergence, giant foxtail; details: 0 to 100 scale (0 no effect, 100 complete control)
Outline: as §1

[4] = test system: morningglory (Ipomoea spp.); test: Test A preemergence, morningglory; details: 0 to 100 scale (0 no effect, 100 complete control)
Outline: as §1

[5] = test system: pigweed (Amaranthus retroflexus); test: Test A preemergence, pigweed; details: 0 to 100 scale (0 no effect, 100 complete control)
Outline: as §1

[6] = test system: velvetleaf (Abutilon theophrasti); test: Test A preemergence, velvetleaf; details: 0 to 100 scale (0 no effect, 100 complete control)
Outline: as §1

[7] = test system: wheat (Triticum aestivum); test: Test A preemergence, wheat; details: 0 to 100 scale (0 no effect, 100 complete control)
Outline: as §1

corn (Zea mays) [8] = test: Test A preemergence, corn; details: 0 to 100 scale (0 no effect, 100 complete control)
Outline: as §1

[9] = test system: barnyardgrass (Echinochloa crus-galli); test: Test A postemergence, barnyardgrass; details: 0 to 100 scale (0 no effect, 100 complete control)
Outline: as §1

[10] = test system: large crabgrass (Digitaria sanguinalis); test: Test A postemergence, large crabgrass; details: 0 to 100 scale (0 no effect, 100 complete control)
Outline: as §1

[11] = test system: giant foxtail (Setaria faberi); test: Test A postemergence, giant foxtail; details: 0 to 100 scale (0 no effect, 100 complete control)
Outline: as §1

[12] = test system: morningglory (Ipomoea spp.); test: Test A postemergence, morningglory; details: 0 to 100 scale (0 no effect, 100 complete control)
Outline: as §1

[13] = test system: pigweed (Amaranthus retroflexus); test: Test A postemergence, pigweed; details: 0 to 100 scale (0 no effect, 100 complete control)
Outline: as §1

[14] = test system: velvetleaf (Abutilon theophrasti); test: Test A postemergence, velvetleaf; details: 0 to 100 scale (0 no effect, 100 complete control)
Outline: as §1

[15] = test system: wheat (Triticum aestivum); test: Test A postemergence, wheat; details: 0 to 100 scale (0 no effect, 100 complete control)
Outline: as §1

corn (Zea mays) [16] = test: Test A postemergence, corn; details: 0 to 100 scale (0 no effect, 100 complete control)
Outline: as §1

[17] = test system: Italian ryegrass (Lolium multiflorum); test: Test B preemergence, Italian ryegrass; details: Table B, preemergence; visual rating on a 0 to 100 scale (0 no effect, 100 complete control), 13 to 15 days after treatment; application rate of this section not shown
Text: (§2) Seeds of plant species selected from blackgrass (Alopecurus myosuroides), downy bromegrass (Bromus tectorum), green foxtail (Setaria viridis), Italian ryegrass (Lolium multiflorum), wheat (Triticum aestivum), wild oat (Avena fatua), catchweed bedstraw (Galium aparine), bermudagrass (Cynodon dactylon), Surinam grass (Brachiaria decumbens), cocklebur (Xanthium strumarium), corn (Zea mays), large crabgrass (Digitaria sanguinalis), woolly cupgrass (Eriochloa villosa), giant foxtail (Setaria faberii), goosegrass (Eleusine indica), johnsongrass (Sorghum halepense), kochia (Kochia scoparia), lambsquarters (Chenopodium album), morningglory (Ipomoea coccinea), nightshade (eastern black nightshade, Solanum ptycanthum), yellow nutsedge (Cyperus esculentus), pigweed (Amaranthus retroflexus), ragweed (common ragweed, Ambrosia elatior), soybean (Glycine max), sunflower (common oilseed sunflower, Helianthus annuus), Russian thistle (Salsola kali), and velvetleaf (Abutilon theophrasti) were planted into a blend of loam soil and sand and treated preemergence with test compounds formulated in a non-phytotoxic solvent mixture which included a surfactant. Treated plants and controls were maintained in a greenhouse for 13 to 15 days, after which time all species were compared to controls and visually evaluated. Plant response ratings, summarized in Table B, are based on a scale of 0 to 100 where 0 is no effect and 100 is complete control. A dash (-) response means no test result.

[18] = test system: wheat (Triticum aestivum); test: Test B preemergence, wheat; details: Table B, preemergence; visual rating on a 0 to 100 scale (0 no effect, 100 complete control), 13 to 15 days after treatment; application rate of this section not shown
Text: as §2

[19] = test system: Surinam grass (Brachiaria decumbens); test: Test B preemergence, Surinam grass; details: Table B, preemergence; visual rating on a 0 to 100 scale (0 no effect, 100 complete control), 13 to 15 days after treatment; application rate of this section not shown
Text: as §2

soybean (Glycine max) = test: Test B preemergence, soybean; details: Table B, preemergence; visual rating on a 0 to 100 scale (0 no effect, 100 complete control), 13 to 15 days after treatment; application rate of this section not shown
Text: as §2

[20] = test system: sunflower (common oilseed sunflower, Helianthus annuus); test: Test B preemergence, sunflower; details: Table B, preemergence; visual rating on a 0 to 100 scale (0 no effect, 100 complete control), 13 to 15 days after treatment; application rate of this section not shown
Text: as §2

[21] = test system: velvetleaf (Abutilon theophrasti); test: Test B preemergence, velvetleaf; details: Table B, preemergence; visual rating on a 0 to 100 scale (0 no effect, 100 complete control), 13 to 15 days after treatment; application rate of this section not shown
Text: as §2

rice (Oryza sativa) = test: Test B flooded paddy test, rice; details: Flood, scale 0 to 100
Outline: (§3)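 Paddy-water application to 2-leaf plants in pots held under 3 cm of flooding; response is a 0–100 visual control rating against controls after 13 to 15 days, and a dash marks a missing result.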

[22] = test system: umbrella sedge (Cyperus difformis); test: Test B flooded paddy test, umbrella sedge; details: Flood, scale 0 to 100
Outline: as §3

[23] = test system: ducksalad (Heteranthera limosa); test: Test B flooded paddy test, ducksalad; details: Flood, scale 0 to 100
Outline: as §3

[24] = test system: barnyardgrass (Echinochloa crus-galli); test: Test B flooded paddy test, barnyardgrass; details: Flood
Outline: as §3

[25] = 250 g ai/ha, scale 0 to 100 (0 no effect, 100 complete control)

## Cn1c(=O)c(CS(=O)(=O)C2=NOC(C)(C)C2)c(C(F)(F)F)c2ccccc21 [Compound 1, 3-[[(4,5-dihydro-5,5-dimethyl-3-isoxazolyl)sulfonyl]methyl]-1-methyl-4-(trifluoromethyl)-2(1H)-quinolinone]
[1]; 125 g ai/ha
  Plant response rating, Barnyardgrass: 0
[1]; 500 g ai/ha
  Plant response rating, Barnyardgrass: 80
[2]; 125 g ai/ha
  Plant response rating, Crabgrass, Large: 0
[2]; 500 g ai/ha
  Plant response rating, Crabgrass, Large: 50
[3]; 125 g ai/ha
  Plant response rating, Foxtail, Giant: 30
[3]; 500 g ai/ha
  Plant response rating, Foxtail, Giant: 90
[4]; 125 g ai/ha
  Plant response rating, Morningglory: 0
[4]; 500 g ai/ha
  Plant response rating, Morningglory: 0
[5]; 125 g ai/ha
  Plant response rating, Pigweed: 0
[5]; 500 g ai/ha
  Plant response rating, Pigweed: 60
[6]; 125 g ai/ha
  Plant response rating, Velvetleaf: 0
[6]; 500 g ai/ha
  Plant response rating, Velvetleaf: 0
[7]; 125 g ai/ha
  Plant response rating, Wheat: 0
[7]; 500 g ai/ha
  Plant response rating, Wheat: 0
Corn (Zea mays) [8]; 125 g ai/ha
  Plant response rating, Corn: 0
[9]; 125 g ai/ha
  Plant response rating, Barnyardgrass: 0
[9]; 500 g ai/ha
  Plant response rating, Barnyardgrass: 80
[10]; 125 g ai/ha
  Plant response rating, Crabgrass, Large: 10
[10]; 500 g ai/ha
  Plant response rating, Crabgrass, Large: 70
[11]; 125 g ai/ha
  Plant response rating, Foxtail, Giant: 20
[11]; 500 g ai/ha
  Plant response rating, Foxtail, Giant: 80
[12]; 125 g ai/ha
  Plant response rating, Morningglory: 0
[12]; 500 g ai/ha
  Plant response rating, Morningglory: 0
[13]; 125 g ai/ha
  Plant response rating, Pigweed: 0
[13]; 500 g ai/ha
  Plant response rating, Pigweed: 50
[14]; 125 g ai/ha
  Plant response rating, Velvetleaf: 0
[14]; 500 g ai/ha
  Plant response rating, Velvetleaf: 20
[15]; 125 g ai/ha
  Plant response rating, Wheat: 0
[15]; 500 g ai/ha
  Plant response rating, Wheat: 0
Corn (Zea mays) [16]; 125 g ai/ha
  Plant response rating, Corn: 0
Corn (Zea mays) [16]; 500 g ai/ha
  Plant response rating, Corn: 0
[17]
  Plant response rating, Ryegrass, Italian: 0
[18]
  Plant response rating, Wheat: 0
[19]
  Plant response rating, Surinam Grass: 0
Soybean (Glycine max)
  Plant response rating, Soybean: 0
[20]
  Plant response rating, Sunflower: 0
[21]
  Plant response rating, Velvetleaf: 0
Rice (Oryza sativa); 31 g ai/ha
  Plant response rating, Rice: 0
Rice (Oryza sativa); 62 g ai/ha
  Plant response rating, Rice: 0
Rice (Oryza sativa); 125 g ai/ha
  Plant response rating, Rice: 0
Rice (Oryza sativa); 250 g ai/ha
  Plant response rating, Rice: 20
[22]; 31 g ai/ha
  Plant response rating, Sedge, Umbrella: 0
[22]; 62 g ai/ha
  Plant response rating, Sedge, Umbrella: 0
[22]; 125 g ai/ha
  Plant response rating, Sedge, Umbrella: 0
[22]; 250 g ai/ha
  Plant response rating, Sedge, Umbrella: 0
[23]; 31 g ai/ha
  Plant response rating, Ducksalad: 0
[23]; 62 g ai/ha
  Plant response rating, Ducksalad: 0
[23]; 125 g ai/ha
  Plant response rating, Ducksalad: 0
[23]; 250 g ai/ha
  Plant response rating, Ducksalad: 0
[24]; 31 g ai/ha, scale 0 to 100
  Plant response rating, Barnyardgrass: 20
[24]; 62 g ai/ha, scale 0 to 100
  Plant response rating, Barnyardgrass: 20
[24]; 125 g ai/ha, scale 0 to 100
  Plant response rating, Barnyardgrass: 20
[24]; [25]
  Plant response rating, Barnyardgrass: 20

## CCn1c(=O)c(CS(=O)(=O)C2=NOC(C)(C)C2)nc2cccnc21 [Compound 57]
[1]; 125 g ai/ha
  Plant response rating, Barnyardgrass: 0
[1]; 500 g ai/ha
  Plant response rating, Barnyardgrass: 40
[2]; 125 g ai/ha
  Plant response rating, Crabgrass, Large: 40
[2]; 500 g ai/ha
  Plant response rating, Crabgrass, Large: 50
[3]; 125 g ai/ha
  Plant response rating, Foxtail, Giant: 0
[3]; 500 g ai/ha
  Plant response rating, Foxtail, Giant: 40
[4]; 125 g ai/ha
  Plant response rating, Morningglory: 0
[4]; 500 g ai/ha
  Plant response rating, Morningglory: 0
[5]; 125 g ai/ha
  Plant response rating, Pigweed: 0
[5]; 500 g ai/ha
  Plant response rating, Pigweed: 0
[6]; 125 g ai/ha
  Plant response rating, Velvetleaf: 0
[6]; 500 g ai/ha
  Plant response rating, Velvetleaf: 0
[7]; 125 g ai/ha
  Plant response rating, Wheat: 0
[7]; 500 g ai/ha
  Plant response rating, Wheat: 0
Corn (Zea mays) [8]; 125 g ai/ha
  Plant response rating, Corn: 0
Corn (Zea mays) [8]; 500 g ai/ha
  Plant response rating, Corn: 0
[9]; 125 g ai/ha
  Plant response rating, Barnyardgrass: 0
[9]; 500 g ai/ha
  Plant response rating, Barnyardgrass: 30
[10]; 125 g ai/ha
  Plant response rating, Crabgrass, Large: 10
[10]; 500 g ai/ha
  Plant response rating, Crabgrass, Large: 40
[11]; 125 g ai/ha
  Plant response rating, Foxtail, Giant: 0
[11]; 500 g ai/ha
  Plant response rating, Foxtail, Giant: 30
[12]; 125 g ai/ha
  Plant response rating, Morningglory: 0
[12]; 500 g ai/ha
  Plant response rating, Morningglory: 0
[13]; 125 g ai/ha
  Plant response rating, Pigweed: 0
[13]; 500 g ai/ha
  Plant response rating, Pigweed: 0
[14]; 125 g ai/ha
  Plant response rating, Velvetleaf: 0
[14]; 500 g ai/ha
  Plant response rating, Velvetleaf: 0
[15]; 125 g ai/ha
  Plant response rating, Wheat: 0
[15]; 500 g ai/ha
  Plant response rating, Wheat: 0
Corn (Zea mays) [16]; 125 g ai/ha
  Plant response rating, Corn: 0
Corn (Zea mays) [16]; 500 g ai/ha
  Plant response rating, Corn: 0
Rice (Oryza sativa); 31 g ai/ha
  Plant response rating, Rice: 0
Rice (Oryza sativa); 62 g ai/ha
  Plant response rating, Rice: 0
Rice (Oryza sativa); 125 g ai/ha
  Plant response rating, Rice: 0
Rice (Oryza sativa); 250 g ai/ha
  Plant response rating, Rice: 0
[22]; 31 g ai/ha
  Plant response rating, Sedge, Umbrella: 0
[22]; 62 g ai/ha
  Plant response rating, Sedge, Umbrella: 0
[22]; 125 g ai/ha
  Plant response rating, Sedge, Umbrella: 0
[22]; 250 g ai/ha
  Plant response rating, Sedge, Umbrella: 0
[23]; 31 g ai/ha
  Plant response rating, Ducksalad: 0
[23]; 62 g ai/ha
  Plant response rating, Ducksalad: 0
[23]; 125 g ai/ha
  Plant response rating, Ducksalad: 0
[23]; 250 g ai/ha
  Plant response rating, Ducksalad: 0
[24]; 31 g ai/ha, scale 0 to 100
  Plant response rating, Barnyardgrass: 0
[24]; 62 g ai/ha, scale 0 to 100
  Plant response rating, Barnyardgrass: 0
[24]; 125 g ai/ha, scale 0 to 100
  Plant response rating, Barnyardgrass: 0
[24]; [25]
  Plant response rating, Barnyardgrass: 0
